Measurements: BindingDB's records for doi:10.1021/jm0492958 (Abbott Laboratories, 2005)

target: Transient receptor potential cation channel subfamily V member 1 (Homo sapiens, UniProt Q8NER1); test: Ca2+ Influx Functional Assay for the Determination of in Vitro Activity.; conditions: pH 7.4; 22 °C
Procedure: (§1) The functional antagonist activity of compounds at the TRPV1 receptor was determined with a Ca2+ influx assay by measuring the effect on capsaicin (0.05 uM) evoked increase in intracellular Ca2+ levels using cells stably expressing recombinant human TRPV1. All compounds were tested over an 11-point half-log concentration range. The fluorescent Ca2+ chelating dye fluo-4 was used as an indicator of the relative levels of Ca2+ in a 96-well format using a fluorescence imaging plate reader. Fluorescence readings were made at 1-5 s intervals over the 240 s course of the experimental run. The peak increase in relative fluorescence units was calculated and expressed as a percentage of the 0.05 uM capsaicin (control) response. Curve fits of the data were solved using a four-parameter logistic Hill equation in GraphPad Prism, and IC50 values were calculated.

Chain of Transient receptor potential cation channel subfamily V member 1 (Homo sapiens, UniProt Q8NER1) (Q8NER1 whole entry): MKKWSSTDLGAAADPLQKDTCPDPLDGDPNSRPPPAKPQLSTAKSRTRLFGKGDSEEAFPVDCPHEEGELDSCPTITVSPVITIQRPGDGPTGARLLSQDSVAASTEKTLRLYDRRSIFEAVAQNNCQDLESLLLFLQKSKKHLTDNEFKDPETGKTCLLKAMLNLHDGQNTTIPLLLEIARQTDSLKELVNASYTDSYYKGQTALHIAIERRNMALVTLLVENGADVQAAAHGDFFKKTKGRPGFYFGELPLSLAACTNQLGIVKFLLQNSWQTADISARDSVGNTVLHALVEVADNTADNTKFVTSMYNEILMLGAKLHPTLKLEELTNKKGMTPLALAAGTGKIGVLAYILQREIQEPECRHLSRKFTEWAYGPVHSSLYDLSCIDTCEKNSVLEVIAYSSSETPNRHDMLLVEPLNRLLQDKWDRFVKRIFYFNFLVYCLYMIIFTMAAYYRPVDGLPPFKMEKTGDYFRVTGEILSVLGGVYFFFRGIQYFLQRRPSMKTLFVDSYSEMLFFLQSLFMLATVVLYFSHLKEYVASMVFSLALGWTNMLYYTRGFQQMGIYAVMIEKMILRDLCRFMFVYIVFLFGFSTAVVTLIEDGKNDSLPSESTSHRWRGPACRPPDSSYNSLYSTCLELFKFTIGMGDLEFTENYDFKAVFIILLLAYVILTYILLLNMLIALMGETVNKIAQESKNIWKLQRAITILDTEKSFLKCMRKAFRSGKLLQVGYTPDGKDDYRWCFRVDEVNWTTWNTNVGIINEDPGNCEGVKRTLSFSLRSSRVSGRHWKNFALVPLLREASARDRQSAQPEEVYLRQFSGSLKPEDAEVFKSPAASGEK

SMILES | EC50 [nM]
O=C(NCCc1ccc(C(F)(F)F)cc1)Nc1cccc2cnccc12 | 19
O=C(NCc1ccc(C(F)(F)F)cc1)Nc1cccc2cnccc12 [1-isoquinolin-5-yl-3-{[4-(trifluoromethyl)phenyl]methyl}urea] | 4
CSc1cccc(NC(=O)Nc2cccc3ccc(O)cc23)c1 [3-(7-hydroxynaphthalen-1-yl)-1-[3-(methylsulfanyl)phenyl]urea] | 22

Results, then the compound that gave them:

EC50 [nM] | SMILES
20 | O=C(NCCc1cccc(C(F)(F)F)c1)Nc1cccc2cnccc12
51 | O=C(NCc1cccc(C(F)(F)F)c1)Nc1cccc2cnccc12 [3-isoquinolin-5-yl-1-{[3-(trifluoromethyl)phenyl]methyl}urea]

target: Transient receptor potential cation channel subfamily V member 1 (Rattus norvegicus, UniProt O35433); test: as above; conditions: pH 7.4; 22 °C
Procedure: as §1

Chain of Transient receptor potential cation channel subfamily V member 1 (Rattus norvegicus, UniProt O35433) (O35433 whole entry): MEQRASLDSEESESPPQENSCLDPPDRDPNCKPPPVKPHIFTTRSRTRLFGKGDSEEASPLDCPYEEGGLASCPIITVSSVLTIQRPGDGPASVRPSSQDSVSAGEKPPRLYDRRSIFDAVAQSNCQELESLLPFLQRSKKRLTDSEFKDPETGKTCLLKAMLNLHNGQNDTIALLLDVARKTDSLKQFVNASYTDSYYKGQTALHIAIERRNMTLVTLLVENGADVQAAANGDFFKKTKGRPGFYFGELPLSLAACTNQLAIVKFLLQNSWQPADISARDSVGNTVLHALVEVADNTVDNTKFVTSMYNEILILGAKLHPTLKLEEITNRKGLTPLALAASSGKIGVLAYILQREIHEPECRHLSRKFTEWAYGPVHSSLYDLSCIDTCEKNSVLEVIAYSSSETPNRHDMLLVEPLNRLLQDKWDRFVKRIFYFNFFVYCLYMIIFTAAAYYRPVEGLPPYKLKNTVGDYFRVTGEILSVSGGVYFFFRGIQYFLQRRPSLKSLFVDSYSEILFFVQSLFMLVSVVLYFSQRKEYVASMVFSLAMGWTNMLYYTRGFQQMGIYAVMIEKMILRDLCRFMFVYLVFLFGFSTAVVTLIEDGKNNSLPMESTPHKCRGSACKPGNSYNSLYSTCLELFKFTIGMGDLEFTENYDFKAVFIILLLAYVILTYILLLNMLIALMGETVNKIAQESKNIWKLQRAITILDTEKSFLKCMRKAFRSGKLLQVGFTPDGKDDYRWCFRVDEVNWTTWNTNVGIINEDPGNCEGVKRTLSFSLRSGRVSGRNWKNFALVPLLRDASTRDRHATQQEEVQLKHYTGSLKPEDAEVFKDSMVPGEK

EC50 [nM] | SMILES
24 | O=C(NCc1ccc(C(F)(F)F)cc1)Nc1cccc2cnccc12 [1-isoquinolin-5-yl-3-{[4-(trifluoromethyl)phenyl]methyl}urea]
